From ChEMBL document CHEMBL5537118, “Synthesis of cinnamoyl tethered indoline derivatives with anti-inflammatory and antioxidant activities” (Eur J Med Chem, 2024)
Active and inactive are the calls of the source. The calls are words filed in the database; no cut-off is given here.

Experiments:
[1] = tested on: Mus musculus; assay: Antiinflammatory activity in carrageenan-induced Kunming mouse model of paw edema assessed as paw volume at 1 mg/kg, ip pretreated for 1 hr followed by carrageenan administration and measured immediately by digital plethysmometer (reference value: 0.116 +/- 0.042 mL); assay type: functional
[2] = tested on: Mus musculus; assay: Antiinflammatory activity in carrageenan-induced Kunming mouse model of paw edema assessed as paw volume at 1 mg/kg, ip pretreated for 1 hr followed by carrageenan administration and measured after 3 hrs by digital plethysmometer (reference value: 0.377 +/- 0.018 mL); assay type: functional; settings: time 4 hrs
[3] = tested on: Mus musculus; assay: Antiinflammatory activity in carrageenan-induced Kunming mouse model of paw edema assessed as paw volume at 10 mg/kg, ip pretreated for 1 hr followed by carrageenan administration and measured after 1 hr by digital plethysmometer (reference value: 0.395 +/- 0.017 mL); assay type: functional; settings: time 2 hrs
[4] = tested on: RAW264.7; assay: Antioxidant activity in H2O2-stimulated mouse RAW264.7 cells assessed as protection against cell damage at 2 to 5 uM pretreated for 30 mins followed by H2O2 stimulation and measured after 4 hrs by MTT assay; assay type: functional, cell-based; settings: dose 2-5 µM, time 4.5 hrs
[5] = tested on: RAW264.7; assay: Antioxidant activity in H2O2-stimulated mouse RAW264.7 cells assessed as protection against cell damage at 2 uM pretreated for 30 mins followed by H2O2 stimulation and measured after 4 hrs by MTT assay relative to control; assay type: functional; settings: time 4.5 hrs
[6] = tested on: RAW264.7; assay: Inhibition of ROS burst in rotenone-stimulated mouse RAW264.7 cells assessed as reduction in ROS level at 0.5 to 2 uM pretreated for 30 mins followed by rotenone addition and measured after 4 hrs by DCFH-DA staining based flow cytometry analysis; assay type: functional, cell-based; settings: dose 0.5-2 µM, time 4.5 hrs
[7] = tested on: RAW264.7; assay: Inhibition of ROS burst in rotenone-stimulated mouse RAW264.7 cells assessed as reduction in ROS level at 1 uM pretreated for 30 mins followed by rotenone addition and measured after 4 hrs by DCFH-DA staining based flow cytometry analysis relative to control; assay type: functional; settings: time 4.5 hrs
[8] = tested on: RAW264.7; assay: Antioxidant activity in LPS-induced mouse RAW264.7 cells assessed as upregulation of HO-1 protein expression incubated for 24 hrs by Western blot analysis; assay type: functional, cell-based; settings: dose 0.5-2 µM
[9] = tested on: RAW264.7; assay: Antiinflammatory activity in LPS-induced mouse RAW264.7 cells assessed as reduction in IL-6 level incubated for 24 hrs by ELISA; assay type: functional, cell-based
[10] = tested on: RAW264.7; assay: Inhibition of NF-kappaB activation in LPS-induced mouse RAW264.7 cells assessed as reduction in IkappaBalpha degradation at 0.5 to 2 uM by Western blot analysis; assay type: cell-based; settings: dose 0.5-2 µM
[11] = tested on: RAW264.7; assay: Effect on p65 total protein expression in LPS-induced mouse RAW264.7 cells at 0.5 to 2 uM by Western blot analysis; assay type: functional, cell-based; settings: dose 0.5-2 µM
[12] = tested on: Mus musculus; assay: Antiinflammatory activity in carrageenan-induced Kunming mouse model of paw edema assessed as paw volume at 10 mg/kg, ip pretreated for 1 hr followed by carrageenan administration and measured immediately by digital plethysmometer (reference value: 0.116 +/- 0.042 mL); assay type: functional
[13] = tested on: Mus musculus; assay: Antiinflammatory activity in carrageenan-induced Kunming mouse model of paw edema assessed as paw volume at 30 mg/kg, ip pretreated for 1 hr followed by carrageenan administration and measured immediately by digital plethysmometer (reference value: 0.116 +/- 0.042 mL); assay type: functional
[14] = tested on: Mus musculus; assay: Antiinflammatory activity in carrageenan-induced Kunming mouse model of paw edema assessed as paw volume at 30 mg/kg, ip pretreated for 1 hr followed by carrageenan administration and measured after 1 hr by digital plethysmometer (reference value: 0.395 +/- 0.017 mL); assay type: functional; settings: time 2 hrs
[15] = tested on: Mus musculus; assay: Antiinflammatory activity in carrageenan-induced Kunming mouse model of paw edema assessed as paw volume at 10 mg/kg, ip pretreated for 1 hr followed by carrageenan administration and measured after 3 hrs by digital plethysmometer (reference value: 0.377 +/- 0.018 mL); assay type: functional; settings: time 4 hrs
[16] = tested on: Mus musculus; assay: Antiinflammatory activity in carrageenan-induced Kunming mouse model of paw edema assessed as paw volume at 1 mg/kg, ip pretreated for 1 hr followed by carrageenan administration and measured after 5 hrs by digital plethysmometer (reference value: 0.362 +/- 0.016 mL); assay type: functional; settings: time 6 hrs
[17] = tested on: Mus musculus; assay: Antiinflammatory activity in carrageenan-induced Kunming mouse model of paw edema assessed as paw volume at 10 mg/kg, ip pretreated for 1 hr followed by carrageenan administration and measured after 5 hrs by digital plethysmometer (reference value: 0.362 +/- 0.016 mL); assay type: functional; settings: time 6 hrs
[18] = tested on: Mus musculus; assay: Antiinflammatory activity in carrageenan-induced Kunming mouse model of paw edema assessed as paw volume at 30 mg/kg, ip pretreated for 1 hr followed by carrageenan administration and measured after 5 hrs by digital plethysmometer (reference value: 0.362 +/- 0.016 mL); assay type: functional; settings: time 6 hrs
[19] = tested on: Mus musculus; assay: Antiinflammatory activity in carrageenan-induced Kunming mouse model of paw edema assessed as edema inhibition at 1 mg/kg, ip pretreated for 1 hr followed by carrageenan administration and measured after 1 hr relative to control; assay type: functional; settings: time 2 hrs
[20] = tested on: Mus musculus; assay: Antiinflammatory activity in carrageenan-induced Kunming mouse model of paw edema assessed as edema inhibition at 10 mg/kg, ip pretreated for 1 hr followed by carrageenan administration and measured after 1 hr relative to control; assay type: functional; settings: time 2 hrs
[21] = tested on: Mus musculus; assay: Antiinflammatory activity in carrageenan-induced Kunming mouse model of paw edema assessed as edema inhibition at 10 mg/kg, ip pretreated for 1 hr followed by carrageenan administration and measured after 3 hrs relative to control; assay type: functional; settings: time 4 hrs
[22] = tested on: Mus musculus; assay: Antiinflammatory activity in carrageenan-induced Kunming mouse model of paw edema assessed as edema inhibition at 1 mg/kg, ip pretreated for 1 hr followed by carrageenan administration and measured after 5 hrs relative to control; assay type: functional; settings: time 6 hrs
[23] = tested on: Mus musculus; assay: Antiinflammatory activity in carrageenan-induced Kunming mouse model of paw edema assessed as edema inhibition at 30 mg/kg, ip pretreated for 1 hr followed by carrageenan administration and measured after 5 hrs relative to control; assay type: functional; settings: time 6 hrs
[24] = tested on: Mus musculus; assay: Antiinflammatory activity in carrageenan-induced Kunming mouse model of paw edema assessed as paw volume at 30 mg/kg, IG pretreated for 1 hr followed by carrageenan administration and measured immediately by digital plethysmometer (reference value: 0.144 +/- 0.026 mL); assay type: functional
[25] = tested on: Mus musculus; assay: Antiinflammatory activity in carrageenan-induced Kunming mouse model of paw edema assessed as paw volume at 30 mg/kg, IG pretreated for 1 hr followed by carrageenan administration and measured after 3 hrs by digital plethysmometer (reference value: 0.365 +/- 0.044 mL); assay type: functional; settings: time 4 hrs
[26] = tested on: Mus musculus; assay: Antiinflammatory activity in carrageenan-induced Kunming mouse model of paw edema assessed as edema inhibition at 30 mg/kg, IG pretreated for 1 hr followed by carrageenan administration and measured after 1 hr relative to control; assay type: functional; settings: po, time 2 hrs
[27] = tested on: Mus musculus; assay: Antioxidant activity in carrageenan-induced Kunming mouse model of paw edema assessed as reduction in MDA level in paw tissue at 1 to 30 mg/kg, ip pretreated for 1 hr followed by carrageenan administration and measured after 5 hrs by ELISA; assay type: functional, organism-based; settings: dose 1-30 mg/kg, time 6.0 hrs
[28] = tested on: Mus musculus; assay: Antioxidant activity in carrageenan-induced Kunming mouse model of paw edema assessed as increase in SOD activity in paw tissue at 1 to 30 mg/kg, ip pretreated for 1 hr followed by carrageenan administration and measured after 5 hrs by ELISA; assay type: functional, organism-based; settings: dose 1-30 mg/kg, time 6.0 hrs

O=C(/C=C/c1ccc(O)c(O)c1)NCCCN1CCc2cc(Cl)ccc21
Activity [1]: 0.131 mL | Activity [2]: 0.267 mL | Activity [3]: 0.189 mL | Activity [4]: Active | Activity [5]: ~100% | inhibition [6]: Active | inhibition at 1 µM [7]: ~100% | Activity [8]: Active | Activity [9]: Dose-Dependent Effect | IC50 ([9]; RAW264.7, 24 h): 1.73 µM | inhibition [10]: Active | Activity [11]: inactive | Activity [12]: 0.128 mL | Activity [13]: 0.131 mL | Activity [14]: 0.158 mL | Activity [15]: 0.175 mL | Activity [16]: 0.225 mL | Activity [17]: 0.155 mL | Activity [18]: 0.137 mL | inhibition in vivo at 1 mg/kg [19]: 27.6% | inhibition in vivo at 10 mg/kg [20]: 75.7% | inhibition in vivo at 10 mg/kg [21]: 82.8% | inhibition in vivo at 1 mg/kg [22]: 57.3% | inhibition in vivo at 30 mg/kg [23]: 94.1% | Activity [24]: 0.138 mL | Activity [25]: 0.243 mL | inhibition in vivo at 30 mg/kg [26]: 24.6% | Activity [27]: Active | Activity [28]: Active
